{"source": "ChEMBL document CHEMBL1201862", "about": "“PubChem BioAssay data set” (2004)", "key": {"Mucolipin-3": {"target": "Mucolipin-3 (Homo sapiens, UniProt Q8TDD5)", "sequence (Q8TDD5 whole entry)": "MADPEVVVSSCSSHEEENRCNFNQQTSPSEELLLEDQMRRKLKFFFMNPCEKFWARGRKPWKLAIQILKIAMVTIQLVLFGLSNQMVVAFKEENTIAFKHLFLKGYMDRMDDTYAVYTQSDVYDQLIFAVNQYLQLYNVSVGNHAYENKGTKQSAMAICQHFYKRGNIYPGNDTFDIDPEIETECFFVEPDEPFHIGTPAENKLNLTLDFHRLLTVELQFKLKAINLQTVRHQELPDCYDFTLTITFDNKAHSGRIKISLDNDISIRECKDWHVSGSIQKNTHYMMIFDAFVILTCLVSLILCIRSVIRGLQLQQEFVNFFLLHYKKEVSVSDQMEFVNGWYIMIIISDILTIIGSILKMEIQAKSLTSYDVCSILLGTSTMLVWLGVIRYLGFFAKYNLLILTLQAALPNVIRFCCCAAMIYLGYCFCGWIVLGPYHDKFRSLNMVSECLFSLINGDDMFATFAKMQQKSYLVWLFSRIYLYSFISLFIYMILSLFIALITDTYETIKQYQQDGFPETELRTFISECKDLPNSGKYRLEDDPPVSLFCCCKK", "assay": "Dose response cell-based high-throughput screening assay for agonists of the transient receptor potential channel ML3 (TRPML3). [Related pubchem assays: 1526, 1424, 1448 ]", "format": "functional"}, "Ion channel NompC": {"target": "Ion channel NompC (Danio rerio, UniProt Q7T1G6)", "sequence (Q7T1G6 whole entry)": "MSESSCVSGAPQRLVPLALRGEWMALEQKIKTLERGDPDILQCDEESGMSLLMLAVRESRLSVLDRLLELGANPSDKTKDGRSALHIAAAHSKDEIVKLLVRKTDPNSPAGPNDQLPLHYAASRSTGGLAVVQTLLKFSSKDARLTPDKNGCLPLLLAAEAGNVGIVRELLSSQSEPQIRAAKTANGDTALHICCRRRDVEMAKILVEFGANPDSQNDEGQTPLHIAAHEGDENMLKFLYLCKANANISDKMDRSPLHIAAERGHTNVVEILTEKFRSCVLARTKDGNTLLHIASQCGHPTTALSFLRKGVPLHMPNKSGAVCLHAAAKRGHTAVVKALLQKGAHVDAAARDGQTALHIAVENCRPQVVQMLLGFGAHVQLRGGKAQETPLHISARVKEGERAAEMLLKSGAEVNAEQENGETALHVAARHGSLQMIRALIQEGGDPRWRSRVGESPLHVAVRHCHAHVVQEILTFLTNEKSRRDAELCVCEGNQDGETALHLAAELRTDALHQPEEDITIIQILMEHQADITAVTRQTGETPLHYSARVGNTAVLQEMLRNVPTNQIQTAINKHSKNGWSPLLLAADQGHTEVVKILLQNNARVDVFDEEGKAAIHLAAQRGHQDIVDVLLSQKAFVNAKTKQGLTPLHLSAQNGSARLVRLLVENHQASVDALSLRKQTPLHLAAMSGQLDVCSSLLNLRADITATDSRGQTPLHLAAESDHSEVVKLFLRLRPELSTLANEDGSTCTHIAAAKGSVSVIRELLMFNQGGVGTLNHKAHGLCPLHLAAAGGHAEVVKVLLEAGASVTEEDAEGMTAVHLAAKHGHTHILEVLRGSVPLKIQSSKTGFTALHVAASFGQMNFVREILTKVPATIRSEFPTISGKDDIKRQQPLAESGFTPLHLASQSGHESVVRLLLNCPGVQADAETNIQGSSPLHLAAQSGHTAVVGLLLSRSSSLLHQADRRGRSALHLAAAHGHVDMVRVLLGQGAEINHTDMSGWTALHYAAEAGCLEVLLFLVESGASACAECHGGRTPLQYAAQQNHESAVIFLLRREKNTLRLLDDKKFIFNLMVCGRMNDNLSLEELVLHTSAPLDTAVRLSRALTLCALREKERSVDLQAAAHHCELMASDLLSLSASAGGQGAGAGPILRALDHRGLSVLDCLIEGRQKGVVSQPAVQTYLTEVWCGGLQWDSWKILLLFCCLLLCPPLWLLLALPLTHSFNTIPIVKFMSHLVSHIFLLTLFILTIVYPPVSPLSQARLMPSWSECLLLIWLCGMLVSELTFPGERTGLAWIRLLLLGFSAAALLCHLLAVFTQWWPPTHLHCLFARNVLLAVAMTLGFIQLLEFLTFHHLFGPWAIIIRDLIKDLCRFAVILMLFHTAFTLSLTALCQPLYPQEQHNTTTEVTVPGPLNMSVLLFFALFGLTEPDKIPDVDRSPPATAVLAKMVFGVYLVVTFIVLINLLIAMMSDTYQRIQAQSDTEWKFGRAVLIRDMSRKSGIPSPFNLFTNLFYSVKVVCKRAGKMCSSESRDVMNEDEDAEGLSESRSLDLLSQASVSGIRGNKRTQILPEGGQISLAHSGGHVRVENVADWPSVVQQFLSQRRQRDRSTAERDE", "assay": "Fluorescence counterscreen assay for TRPML3 agonists: dose response cell-based high-throughput screening assay to identify agonists of the transient receptor potential channel N1 (TRPN1). [Related pubchem assays: 1526, 1424, 1448 ]", "format": "functional"}, "[1]": {"target": "T1, Heat shock factor protein 1 (Mus musculus, UniProt P38532)", "T1 sequence (P38532 whole entry)": "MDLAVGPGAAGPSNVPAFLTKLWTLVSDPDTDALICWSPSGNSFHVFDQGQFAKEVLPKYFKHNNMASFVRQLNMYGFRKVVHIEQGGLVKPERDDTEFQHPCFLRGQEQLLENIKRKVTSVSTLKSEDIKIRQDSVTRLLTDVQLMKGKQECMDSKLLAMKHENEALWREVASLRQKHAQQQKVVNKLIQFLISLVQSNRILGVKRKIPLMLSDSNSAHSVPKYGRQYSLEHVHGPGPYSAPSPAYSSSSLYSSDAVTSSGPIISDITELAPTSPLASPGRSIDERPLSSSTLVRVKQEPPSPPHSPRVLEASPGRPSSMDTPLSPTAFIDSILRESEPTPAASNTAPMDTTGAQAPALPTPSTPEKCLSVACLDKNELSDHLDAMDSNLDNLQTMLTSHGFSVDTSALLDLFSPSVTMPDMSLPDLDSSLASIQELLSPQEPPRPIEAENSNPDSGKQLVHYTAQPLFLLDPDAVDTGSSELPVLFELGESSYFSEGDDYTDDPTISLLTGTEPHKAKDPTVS", "assay": "enhancement of HSF1-driven luciferase signal – cell-based, NIH3T3, luminescence, dose retest, confirmation (AID 435004);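 note: stress induced by proteasome inhibitor MG132 added 30 min after compound; actives raise luminescence as potentiators of the MG132 stress response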", "format": "functional"}, "[2]": {"target": "T2, Low molecular weight phosphotyrosine protein phosphatase (Homo sapiens, UniProt P24666)", "T2 sequence (P24666 whole entry)": "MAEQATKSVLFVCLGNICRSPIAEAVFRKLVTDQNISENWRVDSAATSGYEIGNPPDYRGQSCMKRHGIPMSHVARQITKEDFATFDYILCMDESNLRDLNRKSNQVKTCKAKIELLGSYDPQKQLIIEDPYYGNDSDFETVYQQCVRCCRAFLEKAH", "format": "functional", "settings": "read-out: IC50_Mean"}, "[3]": {"target": "T2, Low molecular weight phosphotyrosine protein phosphatase", "format": "functional", "settings": "read-out: IC50_Mean", "remark": "listed apart in the source"}, "[4]": {"assay": "bead-based luminescence quenchers, dual-tagged ARNT – biochemical, AlphaScreen, cherry-pick, artefact control for ARNT-TACC3 interaction inhibitor project, dose response (AID 651705);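 note: AlphaScreen bead proximity signal that flags compounds interfering with the detection technology; potency reflects signal decrease which marks the compound as an assay artifact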", "format": "functional"}, "[5]": {"assay": "IC50 of Artemis nuclease activity blockers – biochemical, fluorescence intensity, dose response (AID 720701);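 note: Artemis endonuclease enzyme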", "format": "functional"}, "Beta-lactamase [6]": {"target": "Beta-lactamase (Pseudomonas aeruginosa, UniProt Q79MP6)", "sequence (Q79MP6 whole entry)": "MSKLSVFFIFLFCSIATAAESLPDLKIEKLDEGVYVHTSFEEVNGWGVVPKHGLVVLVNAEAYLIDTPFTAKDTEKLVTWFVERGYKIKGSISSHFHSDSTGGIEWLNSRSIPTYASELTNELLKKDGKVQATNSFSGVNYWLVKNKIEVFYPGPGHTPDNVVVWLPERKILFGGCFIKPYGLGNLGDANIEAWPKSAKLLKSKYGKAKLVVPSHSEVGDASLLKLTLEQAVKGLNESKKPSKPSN"}, "Beta-lactamase [7]": {"target": "Beta-lactamase (Salmonella choleraesuis (strain SC-B67), UniProt Q5J463)", "sequence (Q5J463 whole entry)": "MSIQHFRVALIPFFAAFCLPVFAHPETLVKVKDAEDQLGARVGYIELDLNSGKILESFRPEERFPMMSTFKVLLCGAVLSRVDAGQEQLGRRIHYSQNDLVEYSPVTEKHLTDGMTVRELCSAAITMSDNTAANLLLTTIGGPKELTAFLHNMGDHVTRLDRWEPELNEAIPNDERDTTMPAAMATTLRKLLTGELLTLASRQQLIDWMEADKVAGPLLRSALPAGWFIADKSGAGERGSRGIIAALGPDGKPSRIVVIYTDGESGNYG"}, "[8]": {"target": "T3, Mannose-6-phosphate isomerase (Homo sapiens, UniProt P34949)", "T3 sequence (P34949 whole entry)": "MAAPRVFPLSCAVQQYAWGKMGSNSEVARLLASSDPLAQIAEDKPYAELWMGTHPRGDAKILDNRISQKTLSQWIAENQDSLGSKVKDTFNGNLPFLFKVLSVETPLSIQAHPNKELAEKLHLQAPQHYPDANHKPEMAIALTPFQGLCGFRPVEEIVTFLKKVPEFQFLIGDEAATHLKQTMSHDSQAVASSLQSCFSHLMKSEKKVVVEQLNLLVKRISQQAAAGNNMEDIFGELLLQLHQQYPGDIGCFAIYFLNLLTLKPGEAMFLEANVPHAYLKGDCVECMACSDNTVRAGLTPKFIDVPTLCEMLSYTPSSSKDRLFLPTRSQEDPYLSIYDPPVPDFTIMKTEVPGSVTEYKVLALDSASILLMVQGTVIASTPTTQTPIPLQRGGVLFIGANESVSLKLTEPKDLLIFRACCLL", "assay": "MPI inhibition at elevated mannose 6-phosphate – biochemical, fluorescence intensity, high mannose 6-phosphate, primary screen (AID 1220)"}, "[9]": {"target": "T4, Sentrin-specific protease 8 (Homo sapiens, UniProt Q96LD8)", "T4 sequence (Q96LD8 whole entry)": "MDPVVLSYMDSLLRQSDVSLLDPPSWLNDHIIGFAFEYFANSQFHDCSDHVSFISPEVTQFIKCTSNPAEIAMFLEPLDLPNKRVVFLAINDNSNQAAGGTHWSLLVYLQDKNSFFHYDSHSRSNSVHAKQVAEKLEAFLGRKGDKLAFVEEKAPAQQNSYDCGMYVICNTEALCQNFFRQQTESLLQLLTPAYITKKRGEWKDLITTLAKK", "format": "functional"}, "[10]": {"target": "T4, Sentrin-specific protease 8", "format": "functional", "remark": "listed apart in the source"}, "[11]": {"target": "ADP-ribosylation factor GTPase-activating protein 1 (Rattus norvegicus, UniProt Q62848)", "sequence (Q62848 whole entry)": "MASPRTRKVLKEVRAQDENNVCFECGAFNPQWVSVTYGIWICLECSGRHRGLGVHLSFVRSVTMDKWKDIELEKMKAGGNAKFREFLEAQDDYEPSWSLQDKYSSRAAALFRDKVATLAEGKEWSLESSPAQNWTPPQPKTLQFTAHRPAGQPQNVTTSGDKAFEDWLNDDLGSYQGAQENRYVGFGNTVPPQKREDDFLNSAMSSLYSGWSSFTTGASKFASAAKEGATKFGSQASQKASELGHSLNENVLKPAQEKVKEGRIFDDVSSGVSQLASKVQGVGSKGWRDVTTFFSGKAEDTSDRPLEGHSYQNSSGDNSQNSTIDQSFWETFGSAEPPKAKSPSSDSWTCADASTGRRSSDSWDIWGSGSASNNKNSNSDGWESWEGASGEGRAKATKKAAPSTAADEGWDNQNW", "assay": "Fluorescence polarization-based biochemical high throughput dose response screening assay to identify inhibitors of ADP-ribosylation factor GTPase activating protein 1 (ARFGAP1).", "format": "functional"}, "Vero": {"system": "Vero", "assay": "viability loss in Vero cells – cell-based, plate reader, cherry-pick samples, cytotoxicity control, dose response (AID 687020)", "format": "functional", "settings": "Chlorocebus sabaeus"}}, "note": "Calls of active or inactive are those of the source."}
{"molecule": "O=C(O)c1csc(N/N=C/c2ccc(Br)cc2)n1", "values": [{"measurement": "EC50", "setting": "Mucolipin-3", "result": "> 29.9 µM (not active)"}, {"measurement": "EC50", "setting": "Ion channel NompC", "result": "> 29.9 µM (not active)"}, {"measurement": "EC50", "setting": "[1]", "result": "> 260 µM (inactive)"}, {"measurement": "IC50", "setting": "[2]", "result": "> 80 µM (inactive)"}, {"measurement": "IC50", "setting": "[3]", "result": "47.3 µM (inactive)"}]}
{"molecule": "C/C(CC(=O)Nc1ccc(N(C)C)cc1)=N\\NC(=O)c1ccccn1", "values": [{"measurement": "AC50", "setting": "[4]", "result": "78 µM (active)"}, {"measurement": "IC50", "setting": "[5]", "result": "> 20 µM (inactive)"}]}
{"molecule": "N#CC(C#N)=C1C=C2C=C(N3CCCCC3)CCC2CC1", "note": "(centres undefined)", "values": [{"measurement": "IC50", "setting": "Beta-lactamase [6]", "result": "2.51 µM (active)"}, {"measurement": "IC50", "setting": "Beta-lactamase [7]", "result": "1.23 µM (active)"}]}
{"molecule": "CC(C)(C)c1cc(=O)n(-c2ccccc2)[nH]1", "values": [{"measurement": "IC50", "setting": "[8]", "result": "> 50 µM (not active)"}, {"measurement": "IC50", "setting": "[9]", "result": "19.1 µM (active)"}, {"measurement": "IC50", "setting": "[10]", "result": "7.95 µM (active)"}]}
{"molecule": "Cc1cc([N+](=O)[O-])c(C)cc1-c1ccc(/C=N/NC(=O)Cn2nnnc2N)o1", "values": [{"measurement": "IC50", "setting": "[11]", "result": "17.8 µM (inactive)"}]}
{"molecule": "CC(C)(CN1CCN(Cc2ccccc2)CC1)NS(=O)(=O)c1ccc(Cl)cc1", "values": [{"measurement": "AC50", "setting": "Vero", "result": "33.7 µM (active)"}]}
